In PubChem BioAssay (NCI):
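Each compound was tested at five concentrations against cells in 96-well plates for 48 hours. At the TGI there is no net growth.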

Key:
Test in all cases: NCI anticancer screen, dose series, 48 h
NCI-H23 lung = tested on: NCI-H23 lung
SK-MEL-5 melanoma = tested on: SK-MEL-5 melanoma
ACHN renal = tested on: ACHN renal
TK-10 renal = tested on: TK-10 renal
SF-268 CNS = tested on: SF-268 CNS
U251 CNS = tested on: U251 CNS
RPMI-8226 leukemia = tested on: RPMI-8226 leukemia
SNB-19 CNS = tested on: SNB-19 CNS
SF-295 CNS = tested on: SF-295 CNS
M14 melanoma = tested on: M14 melanoma
SK-MEL-28 melanoma = tested on: SK-MEL-28 melanoma
UACC-257 melanoma = tested on: UACC-257 melanoma
UO-31 renal = tested on: UO-31 renal
LOX IMVI melanoma = tested on: LOX IMVI melanoma
KM12 colon = tested on: KM12 colon
MOLT-4 leukemia = tested on: MOLT-4 leukemia
SR leukemia = tested on: SR leukemia
HT29 colon = tested on: HT29 colon
K-562 leukemia = tested on: K-562 leukemia
SNB-78 CNS = tested on: SNB-78 CNS
RXF 393 renal = tested on: RXF 393 renal
OVCAR-3 ovarian = tested on: OVCAR-3 ovarian
M19-MEL melanoma = tested on: M19-MEL melanoma
NCI-H460 lung = tested on: NCI-H460 lung
SN12C renal = tested on: SN12C renal
DMS 114 small cell lung = tested on: DMS 114 small cell lung
SNB-75 CNS = tested on: SNB-75 CNS
786-0 renal = tested on: 786-0 renal
DLD-1 colon = tested on: DLD-1 colon
A498 renal = tested on: A498 renal
A549 NSCLC = tested on: A549 NSCLC
NCI-H226 lung = tested on: NCI-H226 lung
COLO 205 colon = tested on: COLO 205 colon
MALME-3M melanoma = tested on: MALME-3M melanoma
HCT-15 colon = tested on: HCT-15 colon
SK-MEL-2 melanoma = tested on: SK-MEL-2 melanoma
OVCAR-4 ovarian = tested on: OVCAR-4 ovarian
HCC-2998 colon = tested on: HCC-2998 colon
SW-620 colon = tested on: SW-620 colon
HL-60(TB) leukemia = tested on: HL-60(TB) leukemia
SF-539 CNS = tested on: SF-539 CNS
KM20L2 colon = tested on: KM20L2 colon
IGROV1 ovarian = tested on: IGROV1 ovarian
XF 498 CNS = tested on: XF 498 CNS
OVCAR-8 ovarian = tested on: OVCAR-8 ovarian
OVCAR-5 ovarian = tested on: OVCAR-5 ovarian
EKVX NSCLC = tested on: EKVX NSCLC
SK-OV-3 ovarian = tested on: SK-OV-3 ovarian
DMS 273 small cell lung = tested on: DMS 273 small cell lung
HOP-62 NSCLC = tested on: HOP-62 NSCLC
HCT-116 colon = tested on: HCT-116 colon
CAKI-1 renal = tested on: CAKI-1 renal
CCRF-CEM leukemia = tested on: CCRF-CEM leukemia
NCI-H522 lung = tested on: NCI-H522 lung
HOP-92 NSCLC = tested on: HOP-92 NSCLC
UACC-62 melanoma = tested on: UACC-62 melanoma
HOP-18 NSCLC = tested on: HOP-18 NSCLC

COC(=O)Cc1cc(=O)n2c([nH]c3ccccc32)c1C#N
TGI (NCI-H23 lung): > 100 µM | TGI (SK-MEL-5 melanoma): > 100 µM | TGI (ACHN renal): > 100 µM | TGI (TK-10 renal): > 100 µM | TGI (SF-268 CNS): > 100 µM | TGI (U251 CNS): > 100 µM | TGI (RPMI-8226 leukemia): > 100 µM | TGI (SNB-19 CNS): > 100 µM | TGI (SF-295 CNS): > 100 µM | TGI (M14 melanoma): > 100 µM | TGI (SK-MEL-28 melanoma): > 100 µM | TGI (UACC-257 melanoma): > 100 µM | TGI (UO-31 renal): > 100 µM | TGI (LOX IMVI melanoma): > 100 µM | TGI (KM12 colon): > 100 µM | TGI (MOLT-4 leukemia): > 100 µM | TGI (SR leukemia): > 100 µM | TGI (HT29 colon): > 100 µM | TGI (K-562 leukemia): > 100 µM | TGI (SNB-78 CNS): > 100 µM | TGI (RXF 393 renal): > 100 µM | TGI (OVCAR-3 ovarian): > 100 µM | TGI (M19-MEL melanoma): > 100 µM | TGI (NCI-H460 lung): > 100 µM | TGI (SN12C renal): > 100 µM | TGI (DMS 114 small cell lung): > 100 µM | TGI (SNB-75 CNS): > 100 µM | TGI (786-0 renal): > 100 µM | TGI (DLD-1 colon): > 100 µM | TGI (A498 renal): > 100 µM | TGI (A549 NSCLC): > 100 µM | TGI (NCI-H226 lung): > 100 µM | TGI (COLO 205 colon): > 100 µM | TGI (MALME-3M melanoma): > 100 µM | TGI (HCT-15 colon): > 100 µM | TGI (SK-MEL-2 melanoma): > 100 µM | TGI (OVCAR-4 ovarian): > 100 µM | TGI (HCC-2998 colon): > 100 µM | TGI (SW-620 colon): > 100 µM | TGI (HL-60(TB) leukemia): > 100 µM | TGI (SF-539 CNS): > 100 µM | TGI (KM20L2 colon): > 100 µM | TGI (IGROV1 ovarian): > 100 µM | TGI (XF 498 CNS): > 100 µM | TGI (OVCAR-8 ovarian): > 100 µM | TGI (OVCAR-5 ovarian): > 100 µM | TGI (EKVX NSCLC): > 100 µM | TGI (SK-OV-3 ovarian): > 100 µM | TGI (DMS 273 small cell lung): > 100 µM | TGI (HOP-62 NSCLC): > 100 µM | TGI (HCT-116 colon): > 100 µM | TGI (CAKI-1 renal): > 100 µM

O=C(C=Nc1ccccc1C(=O)[O-])c1cccs1.O=C(C=Nc1ccccc1C(=O)[O-])c1cccs1.[Zn+2]
TGI (NCI-H23 lung): > 100 µM | TGI (ACHN renal): > 100 µM | TGI (TK-10 renal): > 100 µM | TGI (SF-268 CNS): 79.8 µM | TGI (U251 CNS): 35.5 µM | TGI (SNB-19 CNS): > 100 µM | TGI (SF-295 CNS): 42.1 µM | TGI (M14 melanoma): > 100 µM | TGI (SK-MEL-28 melanoma): > 100 µM | TGI (UACC-257 melanoma): 43 µM | TGI (CCRF-CEM leukemia): 65.3 µM | TGI (UO-31 renal): > 100 µM | TGI (LOX IMVI melanoma): 71.5 µM | TGI (KM12 colon): > 100 µM | TGI (MOLT-4 leukemia): > 100 µM | TGI (SR leukemia): > 100 µM | TGI (HT29 colon): > 100 µM | TGI (K-562 leukemia): 88 µM | TGI (OVCAR-3 ovarian): 29.1 µM | TGI (NCI-H460 lung): > 100 µM | TGI (SN12C renal): > 10 µM | TGI (SNB-75 CNS): 35.3 µM | TGI (786-0 renal): > 100 µM | TGI (DLD-1 colon): > 100 µM | TGI (A498 renal): > 100 µM | TGI (A549 NSCLC): > 100 µM | TGI (NCI-H522 lung): 47.9 µM | TGI (COLO 205 colon): > 100 µM | TGI (MALME-3M melanoma): > 10 µM | TGI (HCT-15 colon): > 100 µM | TGI (SK-MEL-2 melanoma): 52.1 µM | TGI (HOP-92 NSCLC): 64 µM | TGI (HCC-2998 colon): > 10 µM | TGI (SW-620 colon): > 100 µM | TGI (HL-60(TB) leukemia): > 100 µM | TGI (SF-539 CNS): > 100 µM | TGI (UACC-62 melanoma): 42 µM | TGI (KM20L2 colon): > 100 µM | TGI (IGROV1 ovarian): 76 µM | TGI (HOP-18 NSCLC): > 100 µM | TGI (OVCAR-8 ovarian): > 100 µM | TGI (OVCAR-5 ovarian): 71.9 µM | TGI (SK-OV-3 ovarian): 37.9 µM | TGI (DMS 273 small cell lung): > 100 µM | TGI (HOP-62 NSCLC): > 100 µM | TGI (HCT-116 colon): > 100 µM | TGI (CAKI-1 renal): > 100 µM
